Test results taken from PubChem BioAssay (NCI).
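48-hour exposure; five concentrations; linearly interpolated endpoints. GI50: concentration for 50% inhibition of growth. At the TGI there is no net growth.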

Legend:
Experiment in all cases: DTP human tumour cell line panel, 48 h
CCRF-CEM leukemia = tested on: CCRF-CEM leukemia
M14 melanoma = tested on: M14 melanoma
SK-OV-3 ovarian = tested on: SK-OV-3 ovarian
HS 578T breast = tested on: HS 578T breast
SF-295 CNS = tested on: SF-295 CNS
CAKI-1 renal = tested on: CAKI-1 renal
SK-MEL-2 melanoma = tested on: SK-MEL-2 melanoma
UO-31 renal = tested on: UO-31 renal
NCI-H23 lung = tested on: NCI-H23 lung
NCI/ADR-RES ovarian = tested on: NCI/ADR-RES ovarian
T-47D breast = tested on: T-47D breast
MDA-MB-435 = tested on: MDA-MB-435
786-0 renal = tested on: 786-0 renal
ACHN renal = tested on: ACHN renal
SN12C renal = tested on: SN12C renal
SF-268 CNS = tested on: SF-268 CNS
HCT-116 colon = tested on: HCT-116 colon
UACC-257 melanoma = tested on: UACC-257 melanoma
NCI-H460 lung = tested on: NCI-H460 lung
U251 CNS = tested on: U251 CNS
IGROV1 ovarian = tested on: IGROV1 ovarian
SK-MEL-5 melanoma = tested on: SK-MEL-5 melanoma
HCT-15 colon = tested on: HCT-15 colon
A498 renal = tested on: A498 renal
OVCAR-8 ovarian = tested on: OVCAR-8 ovarian
COLO 205 colon = tested on: COLO 205 colon
MDA-MB-231 breast = tested on: MDA-MB-231 breast
NCI-H522 lung = tested on: NCI-H522 lung
LOX IMVI melanoma = tested on: LOX IMVI melanoma
SW-620 colon = tested on: SW-620 colon
TK-10 renal = tested on: TK-10 renal
PC-3 prostate = tested on: PC-3 prostate
HCC-2998 colon = tested on: HCC-2998 colon
A549 NSCLC = tested on: A549 NSCLC
EKVX NSCLC = tested on: EKVX NSCLC
OVCAR-3 ovarian = tested on: OVCAR-3 ovarian
SNB-19 CNS = tested on: SNB-19 CNS
BT-549 breast = tested on: BT-549 breast
MOLT-4 leukemia = tested on: MOLT-4 leukemia
SR leukemia = tested on: SR leukemia
RPMI-8226 leukemia = tested on: RPMI-8226 leukemia
K-562 leukemia = tested on: K-562 leukemia
KM12 colon = tested on: KM12 colon
UACC-62 melanoma = tested on: UACC-62 melanoma
OVCAR-5 ovarian = tested on: OVCAR-5 ovarian
NCI-H226 lung = tested on: NCI-H226 lung
MCF7 breast = tested on: MCF7 breast
RXF 393 renal = tested on: RXF 393 renal

Q: Which results are given for `Oc1ccc(O)c(-c2cn3c(n2)SCC3)c1`?
A: GI50 (CCRF-CEM leukemia): 5.18 µM; TGI (CCRF-CEM leukemia): > 100 µM; GI50 (M14 melanoma): 15.5 µM; TGI (M14 melanoma): 31.3 µM; GI50 (SK-OV-3 ovarian): 12.5 µM; TGI (SK-OV-3 ovarian): 40.6 µM; GI50 (HS 578T breast): 18.6 µM; TGI (HS 578T breast): 90.7 µM; GI50 (SF-295 CNS): 14.8 µM; TGI (SF-295 CNS): 38.7 µM; GI50 (CAKI-1 renal): 2.47 µM; TGI (CAKI-1 renal): 5.57 µM; GI50 (SK-MEL-2 melanoma): 78.8 µM; TGI (SK-MEL-2 melanoma): > 100 µM; GI50 (UO-31 renal): 20.7 µM; TGI (UO-31 renal): > 100 µM; GI50 (NCI-H23 lung): 24.4 µM; TGI (NCI-H23 lung): 73.4 µM; GI50 (NCI/ADR-RES ovarian): 17.2 µM; TGI (NCI/ADR-RES ovarian): 39.1 µM; GI50 (T-47D breast): 17.5 µM; TGI (T-47D breast): 42.2 µM; GI50 (MDA-MB-435): 15.8 µM; TGI (MDA-MB-435): 35.2 µM; GI50 (786-0 renal): 2.32 µM; TGI (786-0 renal): 6.59 µM; GI50 (ACHN renal): 20.4 µM; TGI (ACHN renal): 34.7 µM; GI50 (SN12C renal): 13.9 µM; TGI (SN12C renal): 29.2 µM; GI50 (SF-268 CNS): 28.7 µM; TGI (SF-268 CNS): > 100 µM; GI50 (HCT-116 colon): 3.07 µM; TGI (HCT-116 colon): 7.81 µM; GI50 (UACC-257 melanoma): 25.5 µM; TGI (UACC-257 melanoma): 55.8 µM; GI50 (NCI-H460 lung): 60.9 µM; TGI (NCI-H460 lung): > 100 µM; GI50 (U251 CNS): 18.3 µM; TGI (U251 CNS): 33.6 µM; GI50 (IGROV1 ovarian): 39.9 µM; TGI (IGROV1 ovarian): > 100 µM; GI50 (SK-MEL-5 melanoma): 16.9 µM; TGI (SK-MEL-5 melanoma): 33 µM; GI50 (HCT-15 colon): 19.1 µM; TGI (HCT-15 colon): 36.9 µM; GI50 (A498 renal): 20.9 µM; TGI (A498 renal): 75.7 µM; GI50 (OVCAR-8 ovarian): 19.7 µM; TGI (OVCAR-8 ovarian): 52.1 µM; GI50 (COLO 205 colon): 17 µM; TGI (COLO 205 colon): 37.8 µM; GI50 (MDA-MB-231 breast): 11.7 µM; TGI (MDA-MB-231 breast): 26.5 µM; GI50 (NCI-H522 lung): 4.93 µM; TGI (NCI-H522 lung): > 100 µM; GI50 (LOX IMVI melanoma): 17.5 µM; TGI (LOX IMVI melanoma): 31.5 µM; GI50 (SW-620 colon): 3.19 µM; TGI (SW-620 colon): 8.17 µM; GI50 (TK-10 renal): 21.3 µM; TGI (TK-10 renal): 37.3 µM; GI50 (PC-3 prostate): 19.1 µM; TGI (PC-3 prostate): 38 µM; GI50 (HCC-2998 colon): 19.6 µM; TGI (HCC-2998 colon): 36.2 µM; GI50 (A549 NSCLC): 47.5 µM; TGI (A549 NSCLC): > 100 µM; GI50 (EKVX NSCLC): 19.5 µM; TGI (EKVX NSCLC): 37.3 µM; GI50 (OVCAR-3 ovarian): 9.36 µM; TGI (OVCAR-3 ovarian): 28.1 µM; GI50 (SNB-19 CNS): 21.3 µM; TGI (SNB-19 CNS): 45.4 µM; GI50 (BT-549 breast): 11.8 µM; TGI (BT-549 breast): 25.7 µM; GI50 (MOLT-4 leukemia): 4.37 µM; TGI (MOLT-4 leukemia): 9.55 µM; GI50 (SR leukemia): 4.03 µM; TGI (SR leukemia): 10.4 µM; GI50 (RPMI-8226 leukemia): 4.08 µM; TGI (RPMI-8226 leukemia): > 100 µM; GI50 (K-562 leukemia): 7.24 µM; TGI (K-562 leukemia): > 100 µM; GI50 (KM12 colon): 16.9 µM; TGI (KM12 colon): 38.2 µM; GI50 (UACC-62 melanoma): 11.2 µM; TGI (UACC-62 melanoma): 24.7 µM; GI50 (OVCAR-5 ovarian): 17.5 µM; TGI (OVCAR-5 ovarian): 33.3 µM; GI50 (NCI-H226 lung): 6.85 µM; TGI (NCI-H226 lung): 28.6 µM; GI50 (MCF7 breast): 26.8 µM; TGI (MCF7 breast): > 100 µM; GI50 (RXF 393 renal): 18.4 µM; TGI (RXF 393 renal): 36.2 µM
